Assay results: PMC5681660, “Reduced hepatitis B and D viral entry using clinically applied drugs as novel inhibitors of the bile acid transporter NTCP” (Scientific Reports, 2017)
“Also recorded” adds a separate entry of the source. Where two headings read alike, the source gives them in different places.

Assays:
[1] = system: HBV; assay: HBV infection of primary human hepatocytes (literature); format: cell-based, hepatitis B virus
[2] = system: HBV; conditions: primary human hepatocytes, cited from earlier work
[3] = system: HDV RNA and HBV DNA serum levels; conditions: chronic hepatitis delta patients, 24 weeks; cited from earlier work
[4] = target: T1, human NTCP (Homo sapiens, UniProt Q14973); assay: Sodium dependent tauro-ursodeoxycholic acid uptake into U2OS-HA-hNTCP cells; format: cell-based; design: HA; expressed in transfected cells
T1 sequence (Q14973 1-349): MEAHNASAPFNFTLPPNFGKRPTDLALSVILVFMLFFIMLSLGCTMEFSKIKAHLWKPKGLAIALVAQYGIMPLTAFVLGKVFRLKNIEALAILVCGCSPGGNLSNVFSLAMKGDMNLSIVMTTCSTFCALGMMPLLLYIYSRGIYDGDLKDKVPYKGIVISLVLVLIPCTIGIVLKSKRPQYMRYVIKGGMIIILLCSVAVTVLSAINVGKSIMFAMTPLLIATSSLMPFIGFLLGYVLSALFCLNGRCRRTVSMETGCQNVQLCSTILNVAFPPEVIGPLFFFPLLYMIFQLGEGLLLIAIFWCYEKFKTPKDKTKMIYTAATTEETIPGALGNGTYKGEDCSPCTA
Protocol: Figure 4 Myrcludex B inhibits uptake of tauro-ursodeoxycholic acid. Sodium dependent tauro-ursodeoxycholic acid uptake into U2OS-HA-hNTCP cells was reduced in the presence of Myrcludex B. N = 6 wells/condition, data are depicted as mean ± SD.
Buffers were set to pH 7.4, at room temperature. After washing, cells were pre-incubated for 10 minutes with drugs in 50 µL uptake buffer. […] After incubation, buffer was removed and cells were washed 2x with ice-cold PBS. Cells were lysed for a minimum of 30 minutes in 30 µL/well 0.05% SDS in water. When lysis was complete, 120 µL MicroScint™-20 (PerkinElmer) was added to the wells and radioactivity was measured by liquid scintillation counting.

[5] = WST-1 cytotoxicity, wildtype U2OS cells; conditions: human
[6] = system: HDV; assay: HDV infection of HepaRG cells (HDAg immunofluorescence); format: cell-based, hepatitis delta virus; conditions: HDAg positive cells, day 5; concentration-dependent
[7] = target: T2, mouse NTCP (Mus musculus, UniProt O08705); assay: Taurocholate uptake in U2OS cells transiently transfected with mouse NTCP; format: cell-based; conditions: at the calculated IC50 value for hNTCP
T2 construct: expressed in transfected cells; host or cells: U2OS (transient transfection, PEI)
T2 sequence (O08705 1-362): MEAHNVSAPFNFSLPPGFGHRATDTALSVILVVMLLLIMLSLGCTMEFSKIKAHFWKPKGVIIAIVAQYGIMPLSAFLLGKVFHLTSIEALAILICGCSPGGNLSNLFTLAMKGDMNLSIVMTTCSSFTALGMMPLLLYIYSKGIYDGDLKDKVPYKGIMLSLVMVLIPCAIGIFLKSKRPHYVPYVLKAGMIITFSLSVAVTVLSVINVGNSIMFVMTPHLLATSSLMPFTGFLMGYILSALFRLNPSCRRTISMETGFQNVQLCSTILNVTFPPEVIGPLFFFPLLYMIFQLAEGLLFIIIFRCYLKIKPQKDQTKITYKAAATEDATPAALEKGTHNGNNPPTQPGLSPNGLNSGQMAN
Protocol: (§1) U2OS and MDCK cells were grown in Dulbecco’s modified Eagle’s medium (DMEM, Sigma-Aldrich), supplemented with 10% FCS (Gibco), 1% L-glutamine (Lonza), and 1% penicillin/streptomycin (Lonza). […] Transient transfection of U2OS cells with mouse NTCP (mNTCP) was done with PEI reagent (Brunschwig, Basel, Switzerland). Shortly, U2OS cells were seeded one day prior to transfection in 24-well plates. On the day of transfection, 0.5 µg DNA was mixed with 100 µl unsupplemented DMEM and 3 µg/µl PEI. After 10–15 minute incubation at RT, 20 µl of the transfection mix was added to each 24-well. Transfected cells were used in further experiments 48–72 hours later. Cell lines were passaged twice a week at a confluence of 80%, and incubated in a humidified atmosphere of 37 °C + 5% CO2.
(§2) For MDCK or MDCK-hASBT cells 70.000 cells/well were plated in 24-well plates, followed by 24 hours 10 mM sodium butyrate (Sigma-Aldrich) stimulation the next day. Cells were used in the inhibition studies 24 hours (U2OS cell lines) or 48 hours (MDCK cell lines) later. Inhibition studies with mNTCP transiently transfected cells were conducted 48–72 hours after transfection.
(§3) Medium was aspirated from the wells and cells were washed once with 250 µL uptake buffer. Subsequently, cells were pre-incubated with drug in 150 µL uptake buffer for 10 minutes at 37 °C. Taurocholate uptake was initiated by addition of 100 µL uptake buffer containing taurocholate (final concentration 10 µM TC spiked with tritium-labeled TC) and cells were incubated for 2 minutes at 37 °C. Subsequently, cells were washed 4 times with ice-cold PBS and lysed with 0.05% SDS in water. Radioactivity was measured by liquid scintillation counting.

[8] = target: T3, human ASBT (Homo sapiens, UniProt Q12908); assay: Taurocholate uptake in MDCK-hASBT cells; format: cell-based; conditions: compared with NTCP
T3 construct: expressed in transfected cells; gift of Paul Dawson; induced with sodium butyrate
T3 sequence (Q12908 1-348): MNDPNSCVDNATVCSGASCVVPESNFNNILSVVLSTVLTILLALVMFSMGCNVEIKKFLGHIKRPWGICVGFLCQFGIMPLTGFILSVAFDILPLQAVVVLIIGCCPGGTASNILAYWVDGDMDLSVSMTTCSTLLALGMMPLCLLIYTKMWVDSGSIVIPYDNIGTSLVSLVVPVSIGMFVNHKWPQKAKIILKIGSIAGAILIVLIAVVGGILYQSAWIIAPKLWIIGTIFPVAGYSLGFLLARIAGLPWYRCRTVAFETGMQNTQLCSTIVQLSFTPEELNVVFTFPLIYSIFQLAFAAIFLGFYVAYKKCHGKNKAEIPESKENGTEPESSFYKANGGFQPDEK
Protocol: as §1, §2, §3

[9] = system: HBV; conditions: for HBV infection in HepaRG cells (in words): HBeAg, HBsAg, HBcAg, concentration-dependent; for concentration effective in reducing HBeAg and HBsAg production: HepaRG cells infected with HBV, supernatant day 7 to 10; for number of HBcAg positive stained cells: HepaRG cells, day 10 post HBV infection, 50 µM
[10] = in vitro; conditions: human, U2OS-HA-hNTCP cells
[11] = target: T1, human NTCP; assay: Taurocholate uptake inhibition studies in U2OS-HA-hNTCP cells; format: cell-based; design: HA; expressed in transfected cells; conditions: for concentration at which NTCP was inhibited in repeated measurements of TC-uptake and Myrcludex B binding / IC50: U2OS-HA-hNTCP cells; for concentration at which NTCP was inhibited in repeated measurements of TC-uptake and Myrcludex B binding: both TC uptake and Myrcludex B binding; for IC50: concentrations 1 nM to 10 mM, read-out: IC50 for hNTCP-mediated TC uptake; for Taurocholate uptake into U2OS-HA-hNTCP cells (in words): increasing drug concentrations
Protocol: as §2, §3

[12] = target: T1, human NTCP; assay: Myrcludex B-FITC binding by confocal microscopy in U2OS-HA-hNTCP cells; design: HA; expressed in transfected cells; conditions: for Myrcludex B-FITC fluorescence / binding to U2OS-HA-hNTCP cells (in words): co-administration with increasing amounts of drug; for ≥50% loss of Myrcludex B binding to hNTCP (concentration): confocal microscopy, 0.2 µM Myrcludex B-FITC, drug 1, 10, 100 µM, concentration at which binding inhibited minimally 50%
Protocol: After 24 hours, medium was aspirated and cells were washed once with 300 µl Leibovitz’s L-15 Medium (Invitrogen). A 30 minute incubation period followed in which all cells were incubated with 0.2 µM Myrcludex B-FITC with or without drug (1, 10, 100 µM) and Hoechst (1/1000) in 300 µL Leibovitz’s L-15 Medium. Cells were washed twice with Leibovitz’s L-15 Medium and subsequently 400 µL Leibovitz’s L-15 Medium was added. Live cell fluorescent imaging was performed using a Leica SP8X-SMD confocal microscope with fully enclosed incubation at 37 °C. A 63x oil objective was used and images were captured while the cells were consecutively excited at 490 nm (FITC) 350 nm (Hoechst). ImageJ software (National Insititutes of Health, Bethesda, MD) was employed for data analysis.

[13] = target: T1, human NTCP; assay: Screening taurocholate uptake assay (96-well, [14C]taurocholate, 10 µM drug); conditions: for Ranking score: ranking over the functional and the binding screening assay; for B-score functional assay: screening taurocholate uptake, 10 µM drug
[14] = system: U2OS cells; assay: WST-1 cytotoxicity, wildtype U2OS cells; conditions: U2OS cells, 2 hours
[15] = system: U2OS-HA-hNTCP cells; conditions: 2 hours

In the case of Myrcludex B, the “fold lower concentration for blocking HBV infection than IC50 for bile acid transport” value [1] is given as “at least 50 fold”, the IC50 ([2]; read-out: concentration inhibiting HBV infection, HBeAg) is given as 83 pM and the IC50 ([2]; read-out: concentration inhibiting HBV infection, HBsAg) is given as 669 pM. The “HDV RNA and HBV DNA serum levels” value [3] was “Largely reduced” and the “sodium-dependent uptake of tauro-ursodeoxycholic acid” value [4] was “largely inhibited; also recorded: reduced”.
In the case of `COc1cc(C(=O)NS(=O)(=O)c2ccccc2C)ccc1Cc1cn(C)c2ccc(NC(=O)OC3CCCC3)cc12` [Zafirlukast], the viability at 1 µM [5] is reported as 87.7 ± 4.8%, the viability at 10 µM [5] is reported as 94.1 ± 2.7% and the viability at 100 µM [5] is reported as 73 ± 5.8%. For the same molecule, the “HDV infection in HepaRG cells (in words)” value [6] was “reduced HBV/HDV infection; also recorded: reduce”, the “inhibition of mouse Ntcp-mediated taurocholate uptake compared with human NTCP” value [7] was “inhibited similarly as human NTCP” and the “inhibition of ASBT-mediated taurocholate uptake” value [8] was “inhibited ASBT less effectively and at higher concentrations than observed for NTCP; also recorded: inhibit ASBT in a concentration-dependent fashion”. For the same molecule, the “HBV infection in HepaRG cells (in words)” value [9] was “reduced HBV/HDV infection; also recorded: reduce”, the “concentration effective in reducing HBeAg and HBsAg production” value [9] was 17 µM and the “number of HBcAg positive stained cells” value [9] was “severely reduced”. It also gave a viability at 2 h, 1 µM [10] of 94.7 ± 12.7%, a viability at 2 h, 10 µM [10] of 87.1 ± 12.3% and a viability at 2 h, 100 µM [10] of 77.7 ± 8%. The “concentration at which NTCP was inhibited in repeated measurements of TC-uptake and Myrcludex B binding” value [11] was ≤ 10 µM, the IC50 [11] was 6.5 µM and the “Taurocholate uptake into U2OS-HA-hNTCP cells (in words)” value [11] was “reduced”. For the same molecule, the “decreased Myrcludex B binding” value ([12]; at 10 µM) was “more than 50%”, the “Myrcludex B-FITC fluorescence / binding to U2OS-HA-hNTCP cells (in words)” value [12] was “reduced Myrcludex B-FITC fluorescence” and the “≥50% loss of Myrcludex B binding to hNTCP (concentration)” value [12] was ≥1 µM. It also gave a Ranking score [13] of 4.472 and a B-score functional assay [13] of -7.741.
With `COc1cc(-c2ccc(N=Nc3ccc4c(S(=O)(=O)[O-])cc(S(=O)(=O)[O-])c(N)c4c3O)c(OC)c2)ccc1N=Nc1ccc2c(S(=O)(=O)[O-])cc(S(=O)(=O)[O-])c(N)c2c1O.[Na+].[Na+].[Na+].[Na+]` [Chicago Sky Blue 6B] the “cell viability by WST-1” value ([14]; 1 µM) was 91.0 ± 9.3%, the “cell viability by WST-1” value ([14]; 10 µM) was 93.9 ± 5.4% and the “cell viability by WST-1” value ([14]; 100 µM) was 108.7 ± 5.6%. The “HDV infection in HepaRG cells (in words)” value [6] was “reduced HBV/HDV infection”, the “inhibition of mouse Ntcp-mediated taurocholate uptake compared with human NTCP” value [7] was “more capable of inhibiting mouse Ntcp; also recorded: more potent in inhibiting mouse NTCP” and the “inhibition of ASBT-mediated taurocholate uptake” value [8] was “inhibited ASBT to a similar extent as NTCP; also recorded: inhibit ASBT in a concentration-dependent fashion”. The “cell viability by WST-1” value ([15]; 1 µM) was 87.8 ± 7.2%, the “cell viability by WST-1” value ([15]; 10 µM) was 95.8 ± 5.9% and the “cell viability by WST-1” value ([15]; 100 µM) was 110.9 ± 9.4%. The “HBV infection in HepaRG cells (in words)” value [9] was “reduced HBV/HDV infection”, the “concentration effective in reducing HBeAg and HBsAg production” value [9] was 17 µM and the “number of HBcAg positive stained cells” value [9] was “severely reduced”. The “concentration at which NTCP was inhibited in repeated measurements of TC-uptake and Myrcludex B binding” value [11] was ≤ 10 µM, the IC50 [11] was 7.1 µM and the “Taurocholate uptake into U2OS-HA-hNTCP cells (in words)” value [11] was “reduced”. For the same molecule, the “Myrcludex B-FITC fluorescence / binding to U2OS-HA-hNTCP cells (in words)” value [12] was “reduced”, the “≥50% loss of Myrcludex B binding to hNTCP (concentration)” value [12] was ≥1 µM and the Ranking score [13] was 17.4642. The B-score functional assay [13] was -3.126.
